Data published in paper PMC7075364, “Synthesis and biological evaluation of small molecule modulators of CDK8/Cyclin C complex with phenylaminoquinoline scaffold” (PeerJ, 2020).
Entries after “also recorded” stand apart in the source; their conditions may differ. Like-named read-outs stand apart in the source and are kept apart here.

Legend:
CDK8/CycC = biological target: T1, CDK8/CycC (Homo sapiens, UniProt P49336); test: In vitro kinase inhibition assay (Reaction Biology HotSpot, 10 dose IC50 singlet); format: biochemical; settings: for IC50 / inhibition at 20 µM: CDK8/CycC; for IC50: 10 dose IC50 singlet assay; for inhibition at 20 µM: compound at 20 µM, read-out: % enzyme inhibition ± SD (20 µM)
T1 construct: purchased Reaction Biology Corp. (Kinase HotSpot service)
T1 sequence (P49336 whole entry): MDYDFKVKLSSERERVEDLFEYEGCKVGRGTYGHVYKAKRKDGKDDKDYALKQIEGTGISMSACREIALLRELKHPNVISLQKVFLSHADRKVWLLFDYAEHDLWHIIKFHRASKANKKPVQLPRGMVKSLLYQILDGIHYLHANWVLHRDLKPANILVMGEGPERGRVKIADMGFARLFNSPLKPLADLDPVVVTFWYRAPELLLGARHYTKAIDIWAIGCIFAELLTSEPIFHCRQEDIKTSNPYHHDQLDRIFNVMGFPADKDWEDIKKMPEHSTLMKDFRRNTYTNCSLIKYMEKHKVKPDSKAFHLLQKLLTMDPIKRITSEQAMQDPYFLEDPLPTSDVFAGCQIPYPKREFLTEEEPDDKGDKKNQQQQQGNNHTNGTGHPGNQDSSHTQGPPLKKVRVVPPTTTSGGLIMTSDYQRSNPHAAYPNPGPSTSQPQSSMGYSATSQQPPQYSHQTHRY
T1 sequence (P24863 whole entry partner): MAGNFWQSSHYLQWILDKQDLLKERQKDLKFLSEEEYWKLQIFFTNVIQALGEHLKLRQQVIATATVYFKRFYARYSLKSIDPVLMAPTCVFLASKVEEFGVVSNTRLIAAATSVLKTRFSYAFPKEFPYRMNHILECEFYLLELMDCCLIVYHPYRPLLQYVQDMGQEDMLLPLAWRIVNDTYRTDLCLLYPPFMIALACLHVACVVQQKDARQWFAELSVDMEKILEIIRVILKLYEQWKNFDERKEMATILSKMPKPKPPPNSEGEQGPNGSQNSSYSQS
Experimental: Reaction Biology Corp. Kinase HotSpotSM service (http://www.reactionbiology.com) was used for the screening of tested compounds. […] Activity of kinases were assessed by the HotSpot assay platform, which contained specific kinase/substrate pairs along with required cofactors ([Abdelazem et al., 2015]; [Abdelazem et al., 2016]; [Al-Sanea et al., 2016a]; [Al-Sanea et al., 2015a]; [Al-Sanea et al., 2015b]; [Al-Sanea, El-Deeb & Lee, 2013]; [Park et al., 2014]).
The newly prepared phenylaminoquinolines 5a–i were biologically evaluated as potential CDK8/CycC complex inhibitors.

CDK8 = settings: cited from earlier work
[1] = system: acute myeloid leukemia (AML); parameters: method as in earlier work; settings: ref Cee et al., 2009, Crown, 2017, Pelish et al., 2015, Rzymski et al.; cited from earlier work

CCOC(=O)c1cnc2ccc(Br)cc2c1Nc1cccc(S(C)(=O)=O)c1 [5g, Ethyl 6-Bromo-4-(3-methanesulfonylphenylamino)-quinoline-3-carboxylate]
IC50 (CDK8/CycC): no CDK8/CycC complex inhibitory activity; also recorded: No inhibition | inhibition at 20 µM (CDK8/CycC): 22.4 ± 1.02%

CN1CCN(C(=O)c2ccc3cc(CCNc4ncnc5ccc(C#N)cc45)ccc3c2)CC1 [Senexin B]
IC50 (CDK8; ref McDermott et al., 2017, Rzymski et al., 2015, read-out: CDK8 modulation IC50): 24 nM

CCOC(=O)c1cnc2cc(Cl)c(F)cc2c1Nc1cccc(S(N)(=O)=O)c1 [5c, Ethyl 7-chloro-6-fluoro-4-((3-sulfamoylphenyl)amino)quinoline-3-carboxylate]
IC50 (CDK8/CycC): failed to inhibit | inhibition at 20 µM (CDK8/CycC): 37.9 ± 1.31%

CCOC(=O)c1cnc2cc(Cl)c(F)cc2c1Nc1cccc(NS(C)(=O)=O)c1 [5f, Ethyl 7-chloro-6-fluoro-4-((3-(methylsulfonamido)phenyl)amino)quinoline-3-carboxylate]
IC50 (CDK8/CycC): failed to inhibit; also recorded: No inhibition | inhibition at 20 µM (CDK8/CycC): 27.2 ± 8.46%

CCOC(=O)c1cnc2ccc(Br)cc2c1Nc1cccc(S(=O)(=O)NC)c1 [5d, Ethyl 6-Bromo-4-((3-(N-methylsulfamoyl)phenyl)amino)quinoline-3-carboxylate]
IC50 (CDK8/CycC; read-out: IC50): 639 nM | inhibition at 20 µM (CDK8/CycC): 88.6 ± 0.97% | melting point: 212.9 to 214.3 °C

CCOC(=O)c1cnc2ccc(OC)cc2c1Nc1cccc(S(N)(=O)=O)c1 [5b, Ethyl 6-methoxy-4-((3-sulfamoylphenyl)amino)quinoline-3-carboxylate]
IC50 (CDK8/CycC): single digit micromolar potency | IC50 (CDK8/CycC; read-out: IC50): 5340 nM | inhibition at 20 µM (CDK8/CycC): 63.4 ± 2.31%

CCOC(=O)c1cnc2ccc(Br)cc2c1Nc1cccc(S(N)(=O)=O)c1 [5a, Ethyl 6-Bromo-4-(3-sulfamoyl-phenylamino)-quinoline-3-carboxylate]
fold decrease in potency relative to 5d (CDK8/CycC; CDK8/CycC IC50 of 5a compared with 5d): 6 fold | IC50 (CDK8/CycC): single digit micromolar potency | IC50 (CDK8/CycC; read-out: IC50): 3980 nM | inhibition at 20 µM (CDK8/CycC): 83.9 ± 1.83% | melting point: 235.6 to 237.2 °C

CCOC(=O)c1cnc2cc(Cl)c(F)cc2c1Nc1cccc(S(C)(=O)=O)c1 [5i, Ethyl 7-chloro-6-fluoro-4-((3-(methylsulfonyl)phenyl)amino)quinoline-3-carboxylate]
IC50 (CDK8/CycC): failed to inhibit; also recorded: No inhibition | inhibition at 20 µM (CDK8/CycC): 32 ± 0.82%

CCOC(=O)c1cnc2ccc(OC)cc2c1Nc1cccc(NS(C)(=O)=O)c1 [5e, Ethyl 6-methoxy-4-((3-(methylsulfonamido)phenyl)amino)quinoline-3-carboxylate]
IC50 (CDK8/CycC; read-out: IC50): 1420 nM | inhibition at 20 µM (CDK8/CycC): 85.9 ± 0.94%

CCOC(=O)c1cnc2ccc(OC)cc2c1Nc1cccc(S(C)(=O)=O)c1 [5h, Ethyl 6-methoxy-4-((3-(methylsulfonyl)phenyl)amino)quinoline-3-carboxylate]
IC50 (CDK8/CycC): No inhibition | inhibition at 20 µM (CDK8/CycC): 18.7 ± 0.48%

CN(C)[C@H]1C[C@@]23CC[C@@]4(O2)C(=CC[C@]2(C)[C@@H](c5ccc6ccncc6c5)CC[C@H]24)C=C3[C@@H](O)[C@@H]1O [cortistatin A]
IC50 (CDK8; ATP-competitive, ref Cee et al., 2009, Crown, 2017, Pelish et al., 2015, Rzymski et al., read-out: CDK8 inhibitory activity IC50): 15 nM | anticancer activity in animal models of AML [1]: exhibited anticancer activity
